Assay results: PubChem BioAssay (NCI)
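Following 48 hours of exposure in 96-well plates, responses at five concentrations were used to interpolate endpoints linearly. GI50 marks 50% less growth. The concentration for full growth arrest is given as TGI.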

Legend:
Test in all cases: NCI tumour cell line growth inhibition, 48 h
RXF 393 renal = system: RXF 393 renal
HCT-116 colon = system: HCT-116 colon
SK-MEL-2 melanoma = system: SK-MEL-2 melanoma
TK-10 renal = system: TK-10 renal
NCI-H460 lung = system: NCI-H460 lung
UACC-257 melanoma = system: UACC-257 melanoma
A498 renal = system: A498 renal
NCI-H23 lung = system: NCI-H23 lung
SN12C renal = system: SN12C renal
SK-MEL-28 melanoma = system: SK-MEL-28 melanoma
HT29 colon = system: HT29 colon
T-47D breast = system: T-47D breast
ACHN renal = system: ACHN renal
HOP-62 NSCLC = system: HOP-62 NSCLC
HCT-15 colon = system: HCT-15 colon
U251 CNS = system: U251 CNS
MOLT-4 leukemia = system: MOLT-4 leukemia
MALME-3M melanoma = system: MALME-3M melanoma
NCI-H226 lung = system: NCI-H226 lung
UO-31 renal = system: UO-31 renal
SNB-19 CNS = system: SNB-19 CNS
OVCAR-8 ovarian = system: OVCAR-8 ovarian
MCF7 breast = system: MCF7 breast
OVCAR-3 ovarian = system: OVCAR-3 ovarian
SF-268 CNS = system: SF-268 CNS
NCI-H522 lung = system: NCI-H522 lung
OVCAR-5 ovarian = system: OVCAR-5 ovarian
SR leukemia = system: SR leukemia
A549 NSCLC = system: A549 NSCLC

With O=C(/C=C/C=C/c1ccccc1)c1ccco1 the GI50 (RXF 393 renal) was 9.78 µM, the TGI (RXF 393 renal) was 24.6 µM and the GI50 (HCT-116 colon) was 12.2 µM. It also gave a TGI (HCT-116 colon) of 25.1 µM, a GI50 (SK-MEL-2 melanoma) of 18.8 µM and a TGI (SK-MEL-2 melanoma) of 37.3 µM. For the same compound, the GI50 (TK-10 renal) was 16.9 µM, the TGI (TK-10 renal) was 40.1 µM and the GI50 (NCI-H460 lung) was 21 µM. The TGI (NCI-H460 lung) was 47.5 µM, the GI50 (UACC-257 melanoma) was 21.8 µM and the TGI (UACC-257 melanoma) was 60.7 µM. For the same compound, the GI50 (A498 renal) was 14.3 µM, the TGI (A498 renal) was 39.1 µM and the GI50 (NCI-H23 lung) was 15 µM. The TGI (NCI-H23 lung) was 30.4 µM, the GI50 (SN12C renal) was 16 µM and the TGI (SN12C renal) was 34.9 µM. For the same compound, the GI50 (SK-MEL-28 melanoma) was 17 µM, the TGI (SK-MEL-28 melanoma) was 31.6 µM and the GI50 (HT29 colon) was 16.7 µM. The TGI (HT29 colon) was 33.5 µM, the GI50 (T-47D breast) was 7.5 µM and the TGI (T-47D breast) was 37.5 µM. It also gave a GI50 (ACHN renal) of 16.9 µM, a TGI (ACHN renal) of 33.5 µM and a GI50 (HOP-62 NSCLC) of 22.2 µM. For the same compound, the TGI (HOP-62 NSCLC) was 45.8 µM, the GI50 (HCT-15 colon) was 11.6 µM and the TGI (HCT-15 colon) was 26.3 µM. The GI50 (U251 CNS) was 12.4 µM, the TGI (U251 CNS) was 24.9 µM and the GI50 (MOLT-4 leukemia) was 1.92 µM. It also gave a TGI (MOLT-4 leukemia) of 21.5 µM, a GI50 (MALME-3M melanoma) of 12.6 µM and a TGI (MALME-3M melanoma) of 28.6 µM. The GI50 (NCI-H226 lung) was 20.7 µM, the TGI (NCI-H226 lung) was 50.2 µM and the GI50 (UO-31 renal) was 10.6 µM. It also gave a TGI (UO-31 renal) of 22.6 µM, a GI50 (SNB-19 CNS) of 15.2 µM and a TGI (SNB-19 CNS) of 31.9 µM. The GI50 (OVCAR-8 ovarian) was 27.1 µM, the TGI (OVCAR-8 ovarian) was greater than 100 µM and the GI50 (MCF7 breast) was 1.24 µM. The TGI (MCF7 breast) was 21.6 µM, the GI50 (OVCAR-3 ovarian) was 14.2 µM and the TGI (OVCAR-3 ovarian) was 27.6 µM. It also gave a GI50 (SF-268 CNS) of 18.2 µM, a TGI (SF-268 CNS) of 41.1 µM and a GI50 (NCI-H522 lung) of 13.2 µM. For the same compound, the TGI (NCI-H522 lung) was 27 µM, the GI50 (OVCAR-5 ovarian) was 18.4 µM and the TGI (OVCAR-5 ovarian) was 33.3 µM. The GI50 (SR leukemia) was 1.86 µM, the TGI (SR leukemia) was 11.2 µM and the GI50 (A549 NSCLC) was 23.8 µM. The TGI (A549 NSCLC) was 77.4 µM.
